In publication PMC12394658, “Discovery of Zharp1-163 as a dual inhibitor of ferroptosis and necroptosis for the treatment of inflammatory disorders and kidney injury” (Cell Death Discovery, 2025):

Assays:
RIPK1 = RIPK1 (Homo sapiens, UniProt Q13546); experiment: ADP-Glo kinase assay with recombinant RIPK1 ([…] ATP, MBP substrate); binding curve also shown in Fig. 4A; format: biochemical
AXL = AXL (Homo sapiens, UniProt P30530); experiment: biochemical; set-up: Kinase selectivity panel of 81 human kinases, ADP-Glo or HTRF, per cent inhibition at 1 uM
Description: (§1) We next sought to determine the binding affinity of Zharp1-163 for RIPK1 or RIPK3 via a binding assay (Fig. 4A). […] Further, we evaluated the selectivity of Zharp1-163 against a panel of 81 kinases (at 1000 nM). […] To elucidate the binding interactions between Zharp1-163 and RIPK1 kinase, we conducted molecular docking studies using the RIPK1 crystal structure (PDB ID: 4NEU). The predicted binding conformations and interaction patterns between Zharp1-163 and the RIPK1 kinase domain are presented in Fig. 4D, E. Like the cocrystallized ligand in the 4NEU crystal complex, Zharp1-163 was predicted to act as a typical type II kinase inhibitor, interacting with the DLG (Asp156-Leu157-Gly158)-out conformation of RIPK1 (Fig. 4D, E). The 2-aminoimidazo [1,2-a] pyridine moiety of Zharp1-163 formed hydrogen bonds with Met95 in the hinge region. Furthermore, the carboxylate group of Zharp1-163 established hydrogen bonds with Asp156 in the DLG-out region. Additionally, the saturated ring of Zharp1-163 was deeply embedded within the hydrophobic allosteric pocket formed by the residues Met66, Met67, Leu70, Val76, Leu129, and Leu159, which is created by the DLG-out conformation in RIPK1 (Fig. 4D, E).  Fig. 4 Zharp1-163 is a selective inhibitor of RIPK1 kinase activity. A Binding affinity curve of Zharp1-163 with RIPK1 and RIPK3. B In an in vitro kinase activity assay, recombinant RIPK1 was incubated with Zharp1-163, after which RIPK1 kinase activity was determined by measuring ATP levels via a luciferase reporter assay system. […] Kinases are marked with dots, where the color of each kinase indicates the level of inhibition achieved by Zharp1-163. D Predicted binding conformation of Zharp1-163. E Schematic representation of the interaction patterns between Zharp1-163 and the key residues in the binding pocket of the RIPK1 kinase. […] NIH3T3-RIPK3 cells were pretreated with the indicated concentrations of Zharp1-163 for 2 h and then treated with AP20187 (100 nM) for 24 h. Cell viability was determined by measuring ATP levels. […] HeLa-MLKL (1–190) cells were pretreated with the indicated concentrations of Zharp1-163 for 2 h and subsequently treated with AP20187 (100 nM) for 24 h. Cell viability was determined by measuring ATP levels. H Viability of IFNβ-primed MEFs at 18 h after stimulation with poly(I:C) plus z-VAD and treatment with Zharp1-163 (10 μM). I Effects of different concentrations of Zharp1-163 on WT or RIPK1 KO HT-29 cells. Cell viability was determined by measuring ATP levels. The data are presented as the mean ± SD of triplicate samples.

AurB = biological target: T1, AurB (Homo sapiens, UniProt Q96GD4); experiment: biochemical; set-up: Kinase selectivity panel of 81 human kinases, ADP-Glo or HTRF, per cent inhibition at 1 uM
T1 construct: gene AURKB
Description: as §1

BMX = BMX (Homo sapiens, UniProt P51813); experiment: biochemical; set-up: Kinase selectivity panel of 81 human kinases, ADP-Glo or HTRF, per cent inhibition at 1 uM
Description: as §1

BRAF = BRAF (Homo sapiens, UniProt P15056); experiment: biochemical; set-up: Kinase selectivity panel of 81 human kinases, ADP-Glo or HTRF, per cent inhibition at 1 uM
Description: as §1

BRSK2 = BRSK2 (Homo sapiens, UniProt Q8IWQ3); experiment: biochemical; set-up: Kinase selectivity panel of 81 human kinases, ADP-Glo or HTRF, per cent inhibition at 1 uM
Description: as §1

EPHB4 = EPHB4 (Homo sapiens, UniProt P54760); experiment: biochemical; set-up: Kinase selectivity panel of 81 human kinases, ADP-Glo or HTRF, per cent inhibition at 1 uM
Description: as §1

MAP3K19 = MAP3K19 (Homo sapiens, UniProt Q56UN5); experiment: biochemical; set-up: Kinase selectivity panel of 81 human kinases, ADP-Glo or HTRF, per cent inhibition at 1 uM
Description: as §1

MLK1 = biological target: T2, MLK1 (Homo sapiens, UniProt P80192); experiment: biochemical; set-up: Kinase selectivity panel of 81 human kinases, ADP-Glo or HTRF, per cent inhibition at 1 uM
T2 construct: gene MAP3K9
Description: as §1

MRCKβ = biological target: T3, MRCKβ (Homo sapiens, UniProt Q9Y5S2); experiment: biochemical; set-up: Kinase selectivity panel of 81 human kinases, ADP-Glo or HTRF, per cent inhibition at 1 uM
T3 construct: gene CDC42BPB
Description: as §1

PKD2 = biological target: T4, PKD2 (Homo sapiens, UniProt Q9BZL6); experiment: biochemical; set-up: Kinase selectivity panel of 81 human kinases, ADP-Glo or HTRF, per cent inhibition at 1 uM
T4 construct: gene PRKD2
Description: as §1

TRKB = biological target: T5, TRKB (Homo sapiens, UniProt Q16620); experiment: biochemical; set-up: Kinase selectivity panel of 81 human kinases, ADP-Glo or HTRF, per cent inhibition at 1 uM
T5 construct: gene NTRK2
Description: as §1

TSSK1 = biological target: T6, TSSK1 (Homo sapiens, UniProt Q9BXA7); experiment: biochemical; set-up: Kinase selectivity panel of 81 human kinases, ADP-Glo or HTRF, per cent inhibition at 1 uM
T6 construct: gene TSSK1B
Description: as §1

ULK2 = ULK2 (Homo sapiens, UniProt Q8IYT8); experiment: biochemical; set-up: Kinase selectivity panel of 81 human kinases, ADP-Glo or HTRF, per cent inhibition at 1 uM
Description: as §1

BRAF, sequence (P15056 whole entry): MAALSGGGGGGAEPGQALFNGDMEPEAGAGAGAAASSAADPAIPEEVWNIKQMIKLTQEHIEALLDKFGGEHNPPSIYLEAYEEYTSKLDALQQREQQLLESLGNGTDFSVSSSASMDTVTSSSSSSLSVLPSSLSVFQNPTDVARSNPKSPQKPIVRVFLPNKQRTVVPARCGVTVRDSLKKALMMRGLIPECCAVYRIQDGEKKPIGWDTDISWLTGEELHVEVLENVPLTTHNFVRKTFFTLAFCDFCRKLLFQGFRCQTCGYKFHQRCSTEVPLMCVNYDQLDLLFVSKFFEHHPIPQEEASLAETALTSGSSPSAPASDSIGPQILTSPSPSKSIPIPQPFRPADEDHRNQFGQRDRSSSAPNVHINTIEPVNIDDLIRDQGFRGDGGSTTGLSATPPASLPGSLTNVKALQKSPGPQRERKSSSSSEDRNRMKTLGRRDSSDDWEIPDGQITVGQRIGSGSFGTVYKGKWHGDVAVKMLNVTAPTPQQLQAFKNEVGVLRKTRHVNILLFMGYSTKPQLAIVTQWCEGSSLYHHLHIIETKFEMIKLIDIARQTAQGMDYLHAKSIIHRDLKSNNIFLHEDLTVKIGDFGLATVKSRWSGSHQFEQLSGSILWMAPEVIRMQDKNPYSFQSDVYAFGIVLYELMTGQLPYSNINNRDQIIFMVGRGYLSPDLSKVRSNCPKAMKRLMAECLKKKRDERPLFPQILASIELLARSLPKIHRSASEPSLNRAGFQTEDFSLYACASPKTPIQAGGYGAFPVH
T6 sequence (Q9BXA7 whole entry): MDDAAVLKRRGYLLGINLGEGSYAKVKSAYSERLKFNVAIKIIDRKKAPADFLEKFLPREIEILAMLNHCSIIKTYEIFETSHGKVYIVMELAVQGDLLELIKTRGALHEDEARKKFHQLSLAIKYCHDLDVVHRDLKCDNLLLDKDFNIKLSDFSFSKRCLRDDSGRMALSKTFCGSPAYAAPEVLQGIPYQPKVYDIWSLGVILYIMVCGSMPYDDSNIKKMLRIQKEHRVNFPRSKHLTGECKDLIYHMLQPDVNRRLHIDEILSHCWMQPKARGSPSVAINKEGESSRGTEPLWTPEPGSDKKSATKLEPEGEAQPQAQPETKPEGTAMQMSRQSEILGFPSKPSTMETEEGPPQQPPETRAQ
T3 sequence (Q9Y5S2 whole entry): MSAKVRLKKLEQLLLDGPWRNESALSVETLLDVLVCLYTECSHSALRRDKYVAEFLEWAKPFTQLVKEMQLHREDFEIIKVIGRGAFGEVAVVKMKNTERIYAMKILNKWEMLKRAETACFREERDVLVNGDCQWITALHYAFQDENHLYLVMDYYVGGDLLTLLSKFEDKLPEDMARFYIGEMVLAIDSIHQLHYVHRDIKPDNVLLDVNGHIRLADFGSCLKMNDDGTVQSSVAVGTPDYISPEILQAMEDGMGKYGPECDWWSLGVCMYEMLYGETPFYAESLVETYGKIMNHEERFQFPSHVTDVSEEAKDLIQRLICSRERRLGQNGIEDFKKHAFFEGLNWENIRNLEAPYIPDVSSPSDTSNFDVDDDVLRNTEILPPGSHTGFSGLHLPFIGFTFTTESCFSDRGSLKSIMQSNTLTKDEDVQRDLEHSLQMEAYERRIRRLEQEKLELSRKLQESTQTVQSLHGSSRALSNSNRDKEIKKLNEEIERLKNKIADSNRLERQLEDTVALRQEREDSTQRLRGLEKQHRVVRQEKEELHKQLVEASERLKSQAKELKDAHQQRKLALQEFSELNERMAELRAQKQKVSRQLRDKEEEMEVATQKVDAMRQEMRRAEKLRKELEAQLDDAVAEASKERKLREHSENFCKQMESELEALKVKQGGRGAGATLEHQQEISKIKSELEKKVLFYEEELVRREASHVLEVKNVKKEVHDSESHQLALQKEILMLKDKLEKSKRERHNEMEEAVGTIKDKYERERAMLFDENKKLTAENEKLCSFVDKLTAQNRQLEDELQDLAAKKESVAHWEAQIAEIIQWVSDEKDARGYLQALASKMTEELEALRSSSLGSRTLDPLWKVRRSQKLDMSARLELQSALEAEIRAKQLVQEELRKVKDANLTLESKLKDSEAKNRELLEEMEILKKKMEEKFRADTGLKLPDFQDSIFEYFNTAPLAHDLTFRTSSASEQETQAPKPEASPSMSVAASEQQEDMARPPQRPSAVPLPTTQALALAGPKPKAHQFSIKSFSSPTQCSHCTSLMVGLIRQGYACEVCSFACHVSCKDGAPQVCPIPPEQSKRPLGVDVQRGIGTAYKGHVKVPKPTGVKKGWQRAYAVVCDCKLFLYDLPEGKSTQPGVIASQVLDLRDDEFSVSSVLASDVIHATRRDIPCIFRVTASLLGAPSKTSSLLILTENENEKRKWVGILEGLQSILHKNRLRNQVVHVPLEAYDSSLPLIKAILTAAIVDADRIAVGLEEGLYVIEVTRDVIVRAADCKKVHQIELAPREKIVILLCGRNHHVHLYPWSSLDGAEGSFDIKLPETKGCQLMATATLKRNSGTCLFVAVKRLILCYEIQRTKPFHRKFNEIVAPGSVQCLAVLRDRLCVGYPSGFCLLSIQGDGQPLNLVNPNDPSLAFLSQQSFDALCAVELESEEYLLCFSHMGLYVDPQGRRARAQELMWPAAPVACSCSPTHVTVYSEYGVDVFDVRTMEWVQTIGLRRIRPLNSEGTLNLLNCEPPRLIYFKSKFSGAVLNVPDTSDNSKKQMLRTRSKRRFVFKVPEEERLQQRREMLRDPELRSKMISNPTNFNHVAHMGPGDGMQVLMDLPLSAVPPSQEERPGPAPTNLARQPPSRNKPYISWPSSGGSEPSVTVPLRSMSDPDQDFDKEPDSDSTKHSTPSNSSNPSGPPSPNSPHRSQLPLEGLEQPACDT
T1 sequence (Q96GD4 whole entry): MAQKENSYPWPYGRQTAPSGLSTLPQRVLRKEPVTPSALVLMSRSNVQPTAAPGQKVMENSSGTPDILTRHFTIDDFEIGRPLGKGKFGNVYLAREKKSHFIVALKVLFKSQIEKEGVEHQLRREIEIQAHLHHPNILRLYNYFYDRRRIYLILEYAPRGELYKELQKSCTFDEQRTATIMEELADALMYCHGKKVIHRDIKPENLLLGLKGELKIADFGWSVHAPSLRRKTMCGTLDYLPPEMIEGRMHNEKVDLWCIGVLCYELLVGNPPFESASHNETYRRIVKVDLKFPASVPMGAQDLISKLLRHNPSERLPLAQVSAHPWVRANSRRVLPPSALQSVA
AXL, sequence (P30530 whole entry, the tested form may be a part): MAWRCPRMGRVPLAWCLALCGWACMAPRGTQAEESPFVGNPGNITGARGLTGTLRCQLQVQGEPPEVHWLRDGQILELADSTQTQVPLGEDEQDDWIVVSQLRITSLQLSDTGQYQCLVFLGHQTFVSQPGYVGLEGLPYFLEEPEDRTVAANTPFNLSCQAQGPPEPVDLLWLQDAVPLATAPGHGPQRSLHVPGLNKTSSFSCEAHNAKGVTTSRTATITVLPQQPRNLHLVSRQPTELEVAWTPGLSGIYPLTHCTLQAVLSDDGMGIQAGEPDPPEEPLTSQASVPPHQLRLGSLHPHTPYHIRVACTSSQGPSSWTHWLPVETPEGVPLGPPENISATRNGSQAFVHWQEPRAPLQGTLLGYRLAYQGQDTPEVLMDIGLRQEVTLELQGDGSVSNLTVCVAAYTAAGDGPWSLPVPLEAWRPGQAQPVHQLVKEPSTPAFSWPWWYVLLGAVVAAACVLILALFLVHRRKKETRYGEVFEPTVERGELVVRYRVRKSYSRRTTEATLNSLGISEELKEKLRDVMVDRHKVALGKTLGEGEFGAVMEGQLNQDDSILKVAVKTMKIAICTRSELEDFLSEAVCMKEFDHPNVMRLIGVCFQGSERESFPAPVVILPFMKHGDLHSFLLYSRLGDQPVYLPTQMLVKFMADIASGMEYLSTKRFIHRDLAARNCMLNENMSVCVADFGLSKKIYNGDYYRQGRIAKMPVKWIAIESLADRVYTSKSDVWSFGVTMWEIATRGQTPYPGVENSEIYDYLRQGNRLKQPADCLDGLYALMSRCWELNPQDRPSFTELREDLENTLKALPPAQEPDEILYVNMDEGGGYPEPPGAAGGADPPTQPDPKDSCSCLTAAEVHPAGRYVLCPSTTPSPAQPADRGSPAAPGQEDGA
BRSK2, sequence (Q8IWQ3 whole entry): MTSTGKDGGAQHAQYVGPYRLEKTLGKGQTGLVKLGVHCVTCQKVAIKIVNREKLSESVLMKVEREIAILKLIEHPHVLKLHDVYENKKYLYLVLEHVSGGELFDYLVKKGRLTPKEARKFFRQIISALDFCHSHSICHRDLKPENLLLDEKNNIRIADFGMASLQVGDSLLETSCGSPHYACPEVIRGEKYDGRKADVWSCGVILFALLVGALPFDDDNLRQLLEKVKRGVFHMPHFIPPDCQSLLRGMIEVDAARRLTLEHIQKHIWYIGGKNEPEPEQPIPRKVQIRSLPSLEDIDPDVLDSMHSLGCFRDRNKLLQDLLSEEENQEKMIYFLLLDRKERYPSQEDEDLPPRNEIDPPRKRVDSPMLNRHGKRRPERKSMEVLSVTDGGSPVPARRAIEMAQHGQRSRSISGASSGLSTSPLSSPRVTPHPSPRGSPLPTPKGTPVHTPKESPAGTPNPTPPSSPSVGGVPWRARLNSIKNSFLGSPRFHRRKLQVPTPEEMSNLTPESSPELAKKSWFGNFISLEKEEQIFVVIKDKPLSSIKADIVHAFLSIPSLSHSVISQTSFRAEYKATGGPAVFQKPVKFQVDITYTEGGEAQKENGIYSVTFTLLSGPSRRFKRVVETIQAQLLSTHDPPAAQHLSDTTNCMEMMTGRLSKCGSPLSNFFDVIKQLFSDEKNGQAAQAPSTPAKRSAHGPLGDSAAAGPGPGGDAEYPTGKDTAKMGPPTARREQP

SMILES: Nc1cn2cc(-c3cnc4c(c3)N(C(=O)OC3CCCCC3)CCO4)ccc2n1 [Zharp1-163]
- IC50 (RIPK1): ~406 nM
- inhibition at 1 µM (AXL; replicate Data1): 10.9%
- inhibition at 1 µM (AXL; replicate Data2): 1.24%
- inhibition at 1 µM (AurB; replicate Data1): 8.89%
- inhibition at 1 µM (AurB; replicate Data2): 13.4%
- inhibition at 1 µM (BMX; replicate Data1): -3.03%
- inhibition at 1 µM (BMX; replicate Data2): 11.3%
- inhibition at 1 µM (BRAF; replicate Data1): 6.11%
- inhibition at 1 µM (BRAF; replicate Data2): -8.57%
- inhibition at 1 µM (BRSK2; replicate Data1): -6.15%
- inhibition at 1 µM (BRSK2; replicate Data2): -3.32%
- inhibition at 1 µM (EPHB4; replicate Data1): 1.63%
- inhibition at 1 µM (EPHB4; replicate Data2): -4.43%
- inhibition at 1 µM (MAP3K19; replicate Data1): -4.19%
- inhibition at 1 µM (MAP3K19; replicate Data2): 10.2%
- inhibition at 1 µM (MLK1; replicate Data1): 21.2%
- inhibition at 1 µM (MLK1; replicate Data2): 32.7%
- inhibition at 1 µM (MRCKβ; replicate Data1): -0.71%
- inhibition at 1 µM (MRCKβ; replicate Data2): 4.66%
- inhibition at 1 µM (PKD2; replicate Data1): 12%
- inhibition at 1 µM (PKD2; replicate Data2): 6.79%
- inhibition at 1 µM (TRKB; replicate Data1): 61.4%
- inhibition at 1 µM (TRKB; replicate Data2): 58.1%
- inhibition at 1 µM (TSSK1; replicate Data1): -0.22%
- inhibition at 1 µM (TSSK1; replicate Data2): 2.05%
- inhibition at 1 µM (ULK2; replicate Data1): -5.94%
- inhibition at 1 µM (ULK2; replicate Data2): -8.78%
